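Grown in 96-well plates, cells were treated for 48 hours with each compound at five concentrations. Insufficient inhibition: endpoint recorded as highest concentration tested. The concentration for 50% growth inhibition is given as GI50. TGI: concentration producing complete growth inhibition.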
Key:
Assay in all cases: growth of human tumour cells (NCI), 48 h
A498 renal = test system: A498 renal
A549 NSCLC = test system: A549 NSCLC
ACHN renal = test system: ACHN renal
CAKI-1 renal = test system: CAKI-1 renal
CCRF-CEM leukemia = test system: CCRF-CEM leukemia
COLO 205 colon = test system: COLO 205 colon
DU-145 prostate = test system: DU-145 prostate
EKVX NSCLC = test system: EKVX NSCLC
HCC-2998 colon = test system: HCC-2998 colon
HCT-15 colon = test system: HCT-15 colon
HL-60(TB) leukemia = test system: HL-60(TB) leukemia
HOP-62 NSCLC = test system: HOP-62 NSCLC
HOP-92 NSCLC = test system: HOP-92 NSCLC
HS 578T breast = test system: HS 578T breast
HT29 colon = test system: HT29 colon
IGROV1 ovarian = test system: IGROV1 ovarian
K-562 leukemia = test system: K-562 leukemia
KM12 colon = test system: KM12 colon
LOX IMVI melanoma = test system: LOX IMVI melanoma
MALME-3M melanoma = test system: MALME-3M melanoma
MCF7 breast = test system: MCF7 breast
MDA-MB-231 breast = test system: MDA-MB-231 breast
MDA-MB-435 = test system: MDA-MB-435
MOLT-4 leukemia = test system: MOLT-4 leukemia
NCI-H226 lung = test system: NCI-H226 lung
NCI-H23 lung = test system: NCI-H23 lung
NCI-H460 lung = test system: NCI-H460 lung
NCI-H522 lung = test system: NCI-H522 lung
NCI/ADR-RES ovarian = test system: NCI/ADR-RES ovarian
OVCAR-3 ovarian = test system: OVCAR-3 ovarian
OVCAR-4 ovarian = test system: OVCAR-4 ovarian
OVCAR-5 ovarian = test system: OVCAR-5 ovarian
OVCAR-8 ovarian = test system: OVCAR-8 ovarian
PC-3 prostate = test system: PC-3 prostate
RPMI-8226 leukemia = test system: RPMI-8226 leukemia
RXF 393 renal = test system: RXF 393 renal
SF-268 CNS = test system: SF-268 CNS
SF-295 CNS = test system: SF-295 CNS
SF-539 CNS = test system: SF-539 CNS
SK-MEL-2 melanoma = test system: SK-MEL-2 melanoma
SK-MEL-28 melanoma = test system: SK-MEL-28 melanoma
SK-MEL-5 melanoma = test system: SK-MEL-5 melanoma
SK-OV-3 ovarian = test system: SK-OV-3 ovarian
SN12C renal = test system: SN12C renal
SNB-19 CNS = test system: SNB-19 CNS
SNB-75 CNS = test system: SNB-75 CNS
SR leukemia = test system: SR leukemia
SW-620 colon = test system: SW-620 colon
T-47D breast = test system: T-47D breast
TK-10 renal = test system: TK-10 renal
U251 CNS = test system: U251 CNS
UACC-257 melanoma = test system: UACC-257 melanoma
UACC-62 melanoma = test system: UACC-62 melanoma
UO-31 renal = test system: UO-31 renal
786-0 renal = test system: 786-0 renal
M14 melanoma = test system: M14 melanoma

For `COc1ccc(/C(=C2/O[C@@H]([C@H]3COC(C)(C)O3)[C@H]3OC(C)(C)O[C@@H]23)c2cc(OC)c(OC)c(OC)c2)cc1O`, the GI50 (A498 renal) was 32.1 µM, the TGI (A498 renal) was 97.4 µM and the GI50 (A549 NSCLC) was 22.7 µM. The TGI (A549 NSCLC) was over 100 µM, the GI50 (ACHN renal) was 15.4 µM and the TGI (ACHN renal) was over 100 µM. It also gave a GI50 (CAKI-1 renal) of 14.8 µM, a TGI (CAKI-1 renal) of 42.2 µM and a GI50 (CCRF-CEM leukemia) of 5.45 µM. It also gave a TGI (CCRF-CEM leukemia) of over 100 µM, a GI50 (COLO 205 colon) of 27.3 µM and a TGI (COLO 205 colon) of 63.7 µM. For the same molecule, the GI50 (DU-145 prostate) was 3.93 µM, the TGI (DU-145 prostate) was over 100 µM and the GI50 (EKVX NSCLC) was 37.4 µM. It also gave a TGI (EKVX NSCLC) of over 100 µM, a GI50 (HCC-2998 colon) of 31.1 µM and a TGI (HCC-2998 colon) of 80.4 µM. For the same molecule, the GI50 (HCT-15 colon) was 4.06 µM, the TGI (HCT-15 colon) was 39.7 µM and the GI50 (HL-60(TB) leukemia) was 6.48 µM. The TGI (HL-60(TB) leukemia) was 56.8 µM, the GI50 (HOP-62 NSCLC) was 10.9 µM and the TGI (HOP-62 NSCLC) was 34.7 µM. For the same molecule, the GI50 (HOP-92 NSCLC) was 4 µM, the TGI (HOP-92 NSCLC) was 38.3 µM and the GI50 (HS 578T breast) was 6.97 µM. The TGI (HS 578T breast) was 67.9 µM, the GI50 (HT29 colon) was 26.5 µM and the TGI (HT29 colon) was 52 µM. It also gave a GI50 (IGROV1 ovarian) of 45.1 µM, a TGI (IGROV1 ovarian) of over 100 µM and a GI50 (K-562 leukemia) of 6.28 µM. It also gave a TGI (K-562 leukemia) of over 100 µM, a GI50 (KM12 colon) of 4.1 µM and a TGI (KM12 colon) of 17.8 µM. For the same molecule, the GI50 (LOX IMVI melanoma) was 5.93 µM, the TGI (LOX IMVI melanoma) was 22.8 µM and the GI50 (MALME-3M melanoma) was 9.96 µM. For the same molecule, the TGI (MALME-3M melanoma) was over 100 µM, the GI50 (MCF7 breast) was 12.3 µM and the TGI (MCF7 breast) was over 100 µM. For the same molecule, the GI50 (MDA-MB-231 breast) was 9.71 µM, the TGI (MDA-MB-231 breast) was 50.1 µM and the GI50 (MDA-MB-435) was 2.15 µM. For the same molecule, the TGI (MDA-MB-435) was 5.54 µM, the GI50 (MOLT-4 leukemia) was 24.2 µM and the TGI (MOLT-4 leukemia) was over 100 µM. It also gave a GI50 (NCI-H226 lung) of 64.7 µM, a TGI (NCI-H226 lung) of over 100 µM and a GI50 (NCI-H23 lung) of 21.8 µM. It also gave a TGI (NCI-H23 lung) of 74.9 µM, a GI50 (NCI-H460 lung) of 29.3 µM and a TGI (NCI-H460 lung) of over 100 µM. It also gave a GI50 (NCI-H522 lung) of 2.95 µM, a TGI (NCI-H522 lung) of 7.54 µM and a GI50 (NCI/ADR-RES ovarian) of 3.11 µM. For the same molecule, the TGI (NCI/ADR-RES ovarian) was 8.85 µM, the GI50 (OVCAR-3 ovarian) was 4.84 µM and the TGI (OVCAR-3 ovarian) was 43.3 µM. It also gave a GI50 (OVCAR-4 ovarian) of 37.5 µM, a TGI (OVCAR-4 ovarian) of over 100 µM and a GI50 (OVCAR-5 ovarian) of 59.6 µM. It also gave a TGI (OVCAR-5 ovarian) of over 100 µM, a GI50 (OVCAR-8 ovarian) of 8.56 µM and a TGI (OVCAR-8 ovarian) of over 100 µM. The GI50 (PC-3 prostate) was 4.12 µM, the TGI (PC-3 prostate) was over 100 µM and the GI50 (RPMI-8226 leukemia) was 4.82 µM. For the same molecule, the TGI (RPMI-8226 leukemia) was 34 µM, the GI50 (RXF 393 renal) was 2.35 µM and the TGI (RXF 393 renal) was 5.07 µM. For the same molecule, the GI50 (SF-268 CNS) was 7.95 µM, the TGI (SF-268 CNS) was 53.6 µM and the GI50 (SF-295 CNS) was 18.7 µM. The TGI (SF-295 CNS) was 43.9 µM, the GI50 (SF-539 CNS) was 3.15 µM and the TGI (SF-539 CNS) was 8.75 µM. The GI50 (SK-MEL-2 melanoma) was 3.26 µM, the TGI (SK-MEL-2 melanoma) was 8.44 µM and the GI50 (SK-MEL-28 melanoma) was 10.6 µM. The TGI (SK-MEL-28 melanoma) was over 100 µM, the GI50 (SK-MEL-5 melanoma) was 4.12 µM and the TGI (SK-MEL-5 melanoma) was 15 µM. The GI50 (SK-OV-3 ovarian) was 12.6 µM, the TGI (SK-OV-3 ovarian) was 91.7 µM and the GI50 (SN12C renal) was 8.9 µM. It also gave a TGI (SN12C renal) of over 100 µM, a GI50 (SNB-19 CNS) of 5.33 µM and a TGI (SNB-19 CNS) of over 100 µM. The GI50 (SNB-75 CNS) was 6.36 µM, the TGI (SNB-75 CNS) was over 100 µM and the GI50 (SR leukemia) was 6.1 µM. The TGI (SR leukemia) was over 100 µM, the GI50 (SW-620 colon) was 7.28 µM and the TGI (SW-620 colon) was over 100 µM. The GI50 (T-47D breast) was 44.3 µM, the TGI (T-47D breast) was over 100 µM and the GI50 (TK-10 renal) was 36.6 µM. The TGI (TK-10 renal) was 86.3 µM, the GI50 (U251 CNS) was 5 µM and the TGI (U251 CNS) was 43.1 µM. It also gave a GI50 (UACC-257 melanoma) of 39.4 µM, a TGI (UACC-257 melanoma) of over 100 µM and a GI50 (UACC-62 melanoma) of 22.9 µM. It also gave a TGI (UACC-62 melanoma) of 57.6 µM, a GI50 (UO-31 renal) of 21.8 µM and a TGI (UO-31 renal) of 70.4 µM.

For `N#Cc1cccc(CSc2ncnc3nc[nH]c23)c1`, the GI50 (CCRF-CEM leukemia) was 61.8 µM, the GI50 (DU-145 prostate) was 73.6 µM and the GI50 (HOP-92 NSCLC) was 16.5 µM. The TGI (HOP-92 NSCLC) was 97.5 µM, the GI50 (HS 578T breast) was 64.2 µM and the GI50 (K-562 leukemia) was 38.2 µM. For the same molecule, the GI50 (MDA-MB-435) was 89.8 µM, the GI50 (MOLT-4 leukemia) was 85.2 µM and the GI50 (NCI-H460 lung) was 74 µM. The GI50 (NCI/ADR-RES ovarian) was 27.6 µM, the TGI (NCI/ADR-RES ovarian) was 80.8 µM and the GI50 (RPMI-8226 leukemia) was 40.4 µM. The GI50 (RXF 393 renal) was 32.8 µM, the GI50 (SK-MEL-5 melanoma) was 89.5 µM and the GI50 (SN12C renal) was 91 µM. It also gave a GI50 (SNB-75 CNS) of 23.7 µM, a TGI (SNB-75 CNS) of 87.7 µM and a GI50 (SR leukemia) of 38.9 µM. The GI50 (T-47D breast) was 56 µM, the GI50 (TK-10 renal) was 99.2 µM and the GI50 (UACC-62 melanoma) was 75.7 µM. It also gave a GI50 (UO-31 renal) of 71.9 µM.

`C=CCNc1nc(C#N)c(N)s1` showed a TGI (786-0 renal) of over 10 µM, a TGI (A549 NSCLC) of over 10 µM and a TGI (ACHN renal) of over 10 µM. For the same molecule, the TGI (CAKI-1 renal) was over 10 µM, the TGI (CCRF-CEM leukemia) was over 10 µM and the TGI (COLO 205 colon) was over 10 µM. The TGI (HL-60(TB) leukemia) was over 10 µM, the TGI (HOP-62 NSCLC) was over 10 µM and the TGI (HOP-92 NSCLC) was over 10 µM. For the same molecule, the TGI (IGROV1 ovarian) was over 10 µM, the TGI (K-562 leukemia) was over 10 µM and the TGI (M14 melanoma) was over 10 µM. The TGI (MALME-3M melanoma) was over 10 µM, the TGI (MCF7 breast) was over 10 µM and the TGI (MDA-MB-435) was over 10 µM. The TGI (MOLT-4 leukemia) was over 10 µM, the TGI (NCI-H23 lung) was over 10 µM and the TGI (NCI-H460 lung) was over 10 µM. For the same molecule, the TGI (NCI/ADR-RES ovarian) was over 10 µM, the TGI (OVCAR-4 ovarian) was over 10 µM and the TGI (OVCAR-5 ovarian) was over 10 µM. It also gave a TGI (RPMI-8226 leukemia) of over 10 µM, a TGI (RXF 393 renal) of over 10 µM and a TGI (SF-268 CNS) of over 10 µM. The TGI (SK-MEL-2 melanoma) was over 10 µM, the TGI (SK-MEL-28 melanoma) was over 10 µM and the TGI (SK-MEL-5 melanoma) was over 10 µM. The TGI (SK-OV-3 ovarian) was over 10 µM, the TGI (SNB-75 CNS) was over 10 µM and the TGI (SR leukemia) was over 10 µM. It also gave a TGI (SW-620 colon) of over 10 µM, a TGI (T-47D breast) of over 10 µM and a TGI (U251 CNS) of over 10 µM. It also gave a TGI (UACC-62 melanoma) of over 10 µM.

— PubChem BioAssay (NCI)
